Measurements: the METLIN SMRT retention time set (Domingo-Almenara et al. 2019)

Experiment: gradient 5% acetonitrile 3 min, to 50% in 2 min, to 85% in 15 min, held 3 min, 100 µL/min
Details: column: Zorbax Extend-C18 2.1 x 50 mm; eluents: water / acetonitrile, 0.1% formic acid
Summary of the method: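 Pure standards were run in mixtures of ~100 molecules by HPLC coupled to a quadrupole time-of-flight mass spectrometer. The column was a Zorbax Extend-C18 (2.1 × 50 mm, 1.8 μm) at 100 μL/min, with water and acetonitrile each containing 0.1% formic acid, in positive and negative ionization mode. Dead and dwell volumes were 40 μL and 900 μL. Retention time was taken from computationally picked adduct peaks, each manually inspected, with data collected over 3 months.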

Row | Compound | RP-LC retention time [s]
1 | Cc1ccc2c(Nc3ccc(Cl)cc3)c(C(=O)N3CCOCC3)cnc2n1 | 608
2 | CCCN1C(=O)COc2ccc(-c3noc(-c4ccc(F)c(F)c4)n3)cc21 | 1270
3 | COc1ccc(C(=O)N2C[C@@H]3C[C@H](NC(=O)c4cccnc4)[C@H]2C3)c(OC)c1 | 605
4 | Cc1cc(C)c2c(N3CCSCC3)nc(C(=O)NCCN3CCCCC3)nc2n1 | 559
5 | Cc1c(C(=O)N2CCOCC2)cnn1-c1cc(-c2nc(C3CC3)no2)ccn1 | 797
6 | Cc1nc(-c2csc(S(=O)(=O)N3CCCC(C(=O)NCc4ccc(N(C)C)cc4)C3)c2)no1 (stereo unspecified) | 686
7 | O=C(NCc1ccccc1C(F)(F)F)c1ccc2c(c1)ncn2CCN1CCCC1 | 599
8 | CC1CCCCN1CCNC(=O)c1c2c(cn(-c3ccc(Cl)cc3)c1=O)C(=O)CC(C)(C)C2 (stereo unspecified) | 710
9 | CCCNC(=O)C1CCN(c2ccc(SCC(=O)Nc3cc(Cl)ccc3OC)nn2)CC1 | 730
10 | COc1ccccc1NC(=O)N1CCC2(CC1)NC(=O)c1cc(F)ccc1N2C | 756
11 | CCCOc1ccc(CN2C[C@@H](CO)[C@H](c3ccccn3)C2)cc1 | 578
12 | COCCN1C(=O)[C@H]2CN(S(=O)(=O)c3ccccc3)C[C@H]2C1=O | 712
13 | O=C(c1ccco1)N1CCC(Cc2noc(C3CC3)n2)C1 (stereo unspecified) | 709
14 | CCc1nc(N)n(CC(=O)Nc2ccccc2F)c(=O)c1C | 599
15 | CCOC(=O)c1noc2ncnc(NCCc3ccc(C)cc3)c12 | 1060
16 | Cc1ccc(-c2ccc(N3CCCC(C(=O)N4CCC(C(N)=O)CC4)C3)nn2)cc1C (stereo unspecified) | 622
17 | CC(=O)c1cccc(NC(=O)N2C[C@H](c3nc(-c4ccccc4)no3)[C@@H](C)C2)c1 | 938
18 | Cc1noc(C)c1-c1ccc(S(=O)(=O)NCC2CCCO2)cc1 (stereo unspecified) | 767
19 | Cc1sc(-c2cc(C(F)(F)F)on2)cc1S(=O)(=O)N1CCN(c2ccccc2)CC1 | 1300
20 | Cc1csc(-c2cc(S(=O)(=O)Nc3cc(F)ccc3Cl)cn2CC(=O)N2CCCC2)n1 | 957
21 | O=C(COc1ccc(-c2cnc3ccccc3n2)cc1)NCC1CCCO1 (stereo unspecified) | 726
22 | CCCn1nnnc1NCc1ccc(-c2ccc(Br)cc2)o1 | 957

Row | Compound | RP-LC retention time [s]
23 | Cc1cc(C(=O)N2CCCn3nc(-c4cccs4)cc3C2)no1 | 791
24 | O=C(CN(CC1CCCO1)C(=O)c1ccc(Cl)cc1)N1CCNCC1 (stereo unspecified) | 605
25 | O=C(Cn1c(C(=O)NCc2ccc(F)cc2F)cccc1=O)NC1CCCC1 | 868
26 | O=C(Cn1cnc2nc3c(cc2c1=O)CCCC3)Nc1ccc(Br)cc1F | 791
27 | COc1ccc(S(=O)(=O)Nc2cccnc2Nc2ccc(O)cc2)cc1 | 687
28 | Cc1nc(-c2ccccc2)cc2nn(CC(=O)NC3CCCCC3)c(=O)n12 | 880
29 | CCOC(=O)c1sc(NC(=O)c2ccco2)nc1-c1ccccc1 | 899
30 | O=C(Nc1ccc2c(c1)OCCO2)C1CCCN(C(=O)c2ccc(Cl)cc2)C1 (stereo unspecified) | 815
31 | CCc1nc2cc(-c3noc(-c4cc(F)ccc4F)n3)ccc2o1 | 1180
32 | Cc1cc(S(=O)(=O)Nc2ccc(Cn3cncn3)cc2)ccc1F | 743
33 | Cc1cccc(NC(=O)CC2COc3ccccc3NC2=O)c1C (stereo unspecified) | 736
34 | O=C(c1ccccc1)N1CCc2sc(C(=O)N3CCN(c4ccccn4)CC3)cc2C1 | 608
35 | CCCCN(CC)CCNC(=O)C1CCN(c2ncnc3onc(C)c23)CC1 | 598
36 | Cc1noc(C)c1CN1CCC(NC(=O)c2cc(Cl)ccc2F)C1 (stereo unspecified) | 570
37 | O=C(O)c1nnn(-c2ccc(Cl)cc2)c1C(F)(F)F | 828
38 | CN1c2cc(C(=O)N3CCN(c4ccccn4)CC3)ccc2C(=O)N2CCCCC21 (stereo unspecified) | 588
39 | COc1ccc(OC)c(NC(=O)Cn2ccc3c(=O)n(C)c(=O)n(C)c32)c1 | 670
40 | COCCCNc1c(-c2ccc(F)cc2)nc2sc(C(=O)N3CCOCC3)c(C)n12 | 741
41 | COc1ccc(CCC(=O)N2CCN(c3cc(C)c4ccccc4n3)CC2)cc1OC | 645
42 | COc1cccc(CC(=O)N2C[C@@H]3C[C@H]2C[C@@H]3NS(=O)(=O)c2ccccc2)c1 | 764
43 | CCc1ccc(NC(=O)Cc2nc(C)c(C(=O)NCC(C)C)s2)cc1 | 868
44 | CCOC(=O)N1CCN(c2cc(C(=O)O)c3cc(NC(=O)c4ccc(OC)cc4)ccc3n2)CC1 | 630

Row | Compound | RP-LC retention time [s]
45 | COc1ccccc1NC(=O)C1CCN(S(=O)(=O)c2cn(C(C)C)cn2)CC1 | 757
46 | Cc1cc2c(cc1S(=O)(=O)N1CCCC1C(=O)Nc1cccc(C)c1C)OCC(=O)N2 (stereo unspecified) | 789
47 | NC(=O)CCSc1nnc(SCC(=O)c2ccccc2)s1 | 675
48 | Cc1cc(C)cc(NC(=O)Cn2c(C)nc3c(sc4nc(-c5ccccc5)ccc43)c2=O)c1 | 1050
49 | CCc1cccc(NC(=O)CN2C(=O)NC3(CCCCC3)C2=O)c1 | 805
50 | CC1CCN(CCCNC(=O)C(=O)Nc2ccc3nc4n(c(=O)c3c2)CCCCC4)CC1 | 615
51 | Cc1ccc2c(c1)N(Cc1ccccc1C)N=C(C(=O)N1CCCCC1)S2(=O)=O | 1040
52 | O=C(Nc1cccc(OCc2nnc(-c3ccccc3)o2)c1)c1ccoc1 | 868
53 | CCN1CCCn2cc(S(=O)(=O)Nc3cc(C)cc(C)c3)cc2C1=O | 768
54 | Cc1nnc([C@@H]2CC(F)(F)CN2C(=O)Cc2c[nH]c3ccccc23)o1 | 723
55 | Cc1cc2c(c(=O)n(-c3ccccc3)c(=O)n2CC(=O)Nc2ccc(Br)cc2)n1C | 877
56 | CCn1ccc2c(cc(C(=O)Nc3ccc(Br)c(C)c3)n2C)c1=O | 895
57 | COC(=O)c1cc(C2CC2)nc2c1c(=O)n(Cc1ccccc1)c(=O)n2C | 1030
58 | CCOc1ccccc1CNC(=O)CN1CCN(Cc2ccc(F)cc2Cl)C1=O | 920
59 | O=c1n(Cc2ccccc2)nc2c(S(=O)(=O)N3CCOCC3)cccn12 | 721
60 | CCc1nc2onc(C)c2c(=O)n1CC(=O)NC1CCCc2ccccc21 (stereo unspecified) | 892
61 | CCn1cc(C(=O)Nc2cccc(Cl)c2)c2cccnc21 | 938
62 | CCOC(=O)C1CCCN(CC(O)COc2ccccc2C(C)=O)C1 (stereo unspecified) | 556
63 | Cc1nc2ccn(Cc3cccnc3)c(=O)c2cc1C(=O)NCCCc1ccco1 | 625
64 | COc1ccc(C2CC(=O)N(Cc3ccccc3)C(=O)C2)cc1OC | 904
65 | Cc1nc(S(=O)(=O)N2CCC(C(=O)NCc3ccc(Cl)cc3)CC2)cn1C | 709
66 | COc1cccc(Cn2cnc3c(-c4cccc(F)c4)csc3c2=O)c1 | 1050
